Legend:
BSA = target: T1, BSA (Bos taurus, UniProt P02769); test: progesterone ligand binding assay by capillary IEF with fluorescence anisotropy, reference protein; details: ~100 nM of each labeled protein, 100 nM fluorescein labeled progesterone, 1% ampholytes, focused at 300V; FIG. 9D
T1 construct: purchased Fisher Scientific (Fairlawn, N.J.)
Experimental: Chemicals. Acetic acid, ammonium acetate, hydroxypropyl cellulose (HPC, avg. MW 100,000), HPLC grade dimethylsulfoxide (DMSO), HPLC grade water, BSA, and phosphate buffered saline (PBS, pH 7.4) were obtained from Fisher Scientific (Fairlawn, N.J.). Ampholytes (Pharmolyte 3-10 for IEF) were obtained from Amersham Biosciences (Piscataway, N.J.).
Sample Preparation. TRITC-labeled proteins were prepared according to manufacturer's protocol. […] TRITC was dissolved in DMSO at 1 mg/mL. The TRITC solution was added to the protein sample, and incubated in the dark for 2 hours.
Focusing Capillaries. 75 μm i.d., 360 μm o.d. fused silica capillaries (Polymicro, Phoenix, Ariz.) were coated with hydroxypropyl cellulose (HPC) by filling the capillaries with a 5% HPC solution and then baking them at 200° C. for 45 minutes. This treatment effectively eliminated the electroosmotic flow in the capillary.
cIEF. […]
Fluorescence anisotropy. Fluorescence emission was viewed using a Leica inverted microscope with a 10× long range objective in an epifluorescence configuration. […]
Since the microscope was operated in epifluorescence mode, it was not possible to measure a true anisotropy value. […] Since both the parallel and perpendicular emission intensities were not measured, the anisotropy value could be calculated, but this configuration did permit the detection of areas with increased anisotropies.

[1] = tested on: lysate from MCF-7 breast cancer cells; test: DIABLA progesterone-protein interactions in a cell lysate; type: binding; details: MCF-7 breast cancer cell lysate, protocols as in Example 6
Experimental: The detection sensitivity of DIABLA was tested by examining progesterone-protein interactions in a lysate from MCF-7 breast cancer cells. The experimental protocols were essentially as described above in Example 6, except that a cell lysate was used rather than pure proteins. Five different protein targets that interact with progesterone were identified. FIG. 11 presents one of the targets.

T1 sequence (P02769 25-607): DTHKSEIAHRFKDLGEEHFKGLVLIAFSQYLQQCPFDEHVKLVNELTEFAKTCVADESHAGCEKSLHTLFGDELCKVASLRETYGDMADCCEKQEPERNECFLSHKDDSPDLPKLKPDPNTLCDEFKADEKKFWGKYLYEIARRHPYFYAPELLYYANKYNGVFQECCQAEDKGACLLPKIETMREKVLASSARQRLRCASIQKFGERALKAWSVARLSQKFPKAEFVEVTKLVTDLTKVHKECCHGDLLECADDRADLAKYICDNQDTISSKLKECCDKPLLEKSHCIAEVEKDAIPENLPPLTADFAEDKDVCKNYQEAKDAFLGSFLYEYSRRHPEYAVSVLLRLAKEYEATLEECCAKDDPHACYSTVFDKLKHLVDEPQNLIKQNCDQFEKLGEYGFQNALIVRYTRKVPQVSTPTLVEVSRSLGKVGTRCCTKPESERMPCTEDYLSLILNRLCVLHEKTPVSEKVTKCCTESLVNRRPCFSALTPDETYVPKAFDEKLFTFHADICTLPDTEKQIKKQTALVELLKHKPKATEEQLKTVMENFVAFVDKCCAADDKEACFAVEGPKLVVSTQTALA

anisotropy in the region containing the focused BSA band (BSA): no or low anisotropy
SMILES: CC(=O)[C@H]1CC[C@H]2[C@@H]3CCC4=CC(=O)CC[C@]4(C)[C@H]3CC[C@]12C [progesterone]
number of protein targets that interact with progesterone identified [1]: Five

From patent US7931791B2, “Method of detecting analyte-biomolecule interactions” (Southern Illinois University Carbondale, priority 2006, dated 2011)
